Laboratory results: patent US5480869A, “Anti-inflammatory peptide analogs and treatment to inhibit vascular leakage in injured tissues” (The Regents of the University of California, priority 1993, dated 1996)
Values joined by “and” are separate entries in the source; they are usually repeats but may differ in a detail not shown here. Identical values can stand only once. Where a SMILES comes first, the peptide text is derived from it. [ ]: non-standard residue; d: D form.

Test system: rat's hind paw heat-edema
Test: heat-induced paw edema in pentobarbital-anesthetized rat (58° C. water, 1 minute)
Type: in vivo
Details: for Heat-Edema % Saline Values: ten minutes before 58° C. water for 1 minute, edema measured 30 minutes after heat; for anti-inflammatory activity, result in words: heat-edema, relative to saline controls
Description: The inventive peptides were dissolved either in saline or saline acidified with 0.1 M acetic acid and injected intravenously into a pentobarbital-anesthetized rat. The rat's hind paw was then immersed in 58°-60° C. water for 1 minute and the increase in paw weight, as an index of edema and swelling, was measured 30 minutes later. For some peptides, the ability of the substances to inhibit vascular leakage after muscle injury was also tested. Normally, the paw weight of saline-treated animals (controls) will increase by about 65-95% after heat injury. The increase in weight is relative to the contralateral non-heated paw.
In screening the bioactivity of new peptides, a dose of 5 mg/kg i.v. was initially used. In later studies, when greater activity was expected, a screening dose of 1 to 2 mg/kg i.v. was used.
Thus, each peptide was injected intravenously (at the amounts specified, usually 1 or 5 mg/kg, or by full dose-response analysis) 10 minutes (for 7/8-mers) or one hour (for 11-mers) before immersion of the right paw in 58° C. water, for 1 minute, and weights of both paws were obtained 30minutes later. To obtain statistical accuracy, four to six animals were used in each group. The % wt increase was calculated as (wt of heated paw--wt of unheated paw/wt of unheated paw)×100 and converted to % of the saline control group values, which were run concurrently.

[1] = dose 5 mg/kg i.v., N.S. = not different from saline
[2] = i.y. [sic], 7/8-mers, ten minute interval between administration and 58° C. water for 1 minute, edema 30 minutes after heat, Table 3

Molecule	Heat-Edema % Saline Values [1] [% Saline Values]	ED50 (95% confidence limits) [2]	further results
CC[C@H](C)[C@H](NC(=O)[C@H](Cc1ccc([N+](=O)[O-])cc1)NC(=O)[C@H](CC(C)C)NC(=O)[C@H](CC(C)C)NC(=O)[C@H](CCCCN)NC(=O)[C@@H](N)CCCNC(=N)N)C(=O)N[C@H](CC(C)C)C(N)=O [Composition 12] (HELM PEPTIDE1{R.K.L.L.[O=C([C@H](Cc1ccc([N+](=O)[O-])cc1)N[*:1])[*:2]].I.[dL].[am]}$$$$V2.0)	41 ± 6	–	–
CC[C@H](C)[C@H](NC(=O)[C@H]1CCCN1C(=O)[C@H](CCSC)NC(=O)[C@H](CC(C)C)NC(=O)[C@H](CCCCN)NC(=O)[C@@H](N)CCCNC(=N)N)C(=O)N[C@H](CC(C)C)C(N)=O [Composition 14] (HELM PEPTIDE1{R.K.L.M.[dP].I.[dL].[am]}$$$$V2.0)	–	–	Heat-Edema % Saline Values (dose 2 mg/kg i.v.): 21 ± 3 % Saline Values
CC[C@H](C)[C@H](NC(=O)[C@@H](CCCNC(=N)N)NC(=O)[C@H](CC(C)C)NC(=O)[C@H](CC(C)C)NC(=O)[C@H](CCCCN)NC(=O)[C@@H](N)CCCNC(=N)N)C(=O)N[C@H](CC(C)C)C(N)=O [Composition 21] (HELM PEPTIDE1{R.K.L.L.[dR].I.[dL].[am]}$$$$V2.0)	–	2.0 (0.80-5.0) mg/kg	–
CC[C@H](C)[C@H](NC(=O)[C@@H](Cc1c[nH]cn1)NC(=O)[C@H](CC(C)C)NC(=O)[C@H](CC(C)C)NC(=O)[C@H](CCCCN)NC(=O)[C@@H](N)CCCNC(=N)N)C(=O)N[C@H](CC(C)C)C(N)=O [Composition 20] (HELM PEPTIDE1{R.K.L.L.[dH].I.[dL].[am]}$$$$V2.0)	–	2.3 (1.2-4.2) mg/kg	–
CC[C@H](C)[C@H](NC(=O)[C@@H](CCCCN)NC(=O)[C@H](CC(C)C)NC(=O)[C@H](CC(C)C)NC(=O)[C@H](CCCCN)NC(=O)[C@H](CCCNC(=N)N)NC(C)=O)C(=O)N[C@H](CC(C)C)C(N)=O [Composition 19] (HELM PEPTIDE1{[ac].R.K.L.L.[dK].I.[dL].[am]}$$$$V2.0)	–	–	Heat-Edema % Saline Values (dose 1 mg/kg i.v.): 23 ± 8 % Saline Values
CC[C@H](C)[C@H](NC(=O)[C@H](Cc1ccc(F)cc1)NC(=O)[C@H](CC(C)C)NC(=O)[C@H](CC(C)C)NC(=O)[C@H](CCCCN)NC(=O)[C@@H](N)CCCNC(=N)N)C(=O)N[C@H](CC(C)C)C(N)=O [Composition 10] (HELM PEPTIDE1{R.K.L.L.[O=C([C@H](Cc1ccc(F)cc1)N[*:1])[*:2]].I.[dL].[am]}$$$$V2.0)	54 ± 11	–	–
CC[C@H](C)[C@H](NC(=O)[C@H](CCCCN)NC(=O)[C@H](CC(C)C)NC(=O)[C@H](CC(C)C)NC(=O)[C@H](CCCCN)NC(=O)[C@@H](N)CCCNC(=N)N)C(=O)N[C@H](CC(C)C)C(N)=O [Composition 8] (HELM PEPTIDE1{R.K.L.L.K.I.[dL].[am]}$$$$V2.0)	38 ± 10	–	–
CC[C@H](C)[C@H](NC(=O)[C@H](Cc1ccc(OC)cc1)NC(=O)[C@@H](NC(=O)[C@H](CC(C)C)NC(=O)[C@H](CCCCN)NC(=O)[C@H](CCCNC(=N)N)NC(C)=O)C(C)C)C(=O)N[C@H](CC(C)C)C(N)=O [Composition 17] (Ac-RKLVY(Me)I[dL]-NH2)	–	–	Heat-Edema % Saline Values (dose 2 mg/kg i.v.): 49 ± 9 % Saline Values; anti-inflammatory activity, result in words: retains activity, albeit at a lower potency
CC[C@H](C)[C@H](NC(=O)[C@H](CCCNC(=N)N)NC(=O)[C@H](CCCNC(=N)N)NC(C)=O)C(=O)N[C@H](C(=O)N[C@@H](Cc1ccc(OC)cc1)C(=O)N[C@H](C(=O)N[C@H](CC(C)C)C(N)=O)[C@@H](C)CC)[C@@H](C)CC [Composition 26] (Ac-RRIIY(Me)I[dL]-NH2)	–	0.70 (0.40-1.2) mg/kg	anti-inflammatory activity, result in words: potent anti-inflammatory properties
CC[C@H](C)[C@H](NC(=O)[C@H](CCCNC(=N)N)NC(=O)[C@H](CC(C)C)NC(=O)[C@H](CC(C)C)NC(=O)[C@H](CCCCN)NC(=O)[C@@H](N)CCCNC(=N)N)C(=O)N[C@H](CC(C)C)C(N)=O [Composition 9] (HELM PEPTIDE1{R.K.L.L.R.I.[dL].[am]}$$$$V2.0)	18 ± 3	–	–
CC[C@H](C)[C@H](NC(=O)[C@H](Cc1ccc(OC)cc1)NC(=O)[C@H](CCSC)NC(=O)[C@H](CC(C)C)NC(=O)[C@H](CCCCN)NC(=O)[C@@H](CCCNC(=N)N)NC(C)=O)C(=O)N[C@H](CC(C)C)C(N)=O [Composition 27] (Ac-[dR]KLMY(Me)I[dL]-NH2)	–	0.52 (0.19-1.8) mg/kg	–
CC[C@H](C)[C@H](NC(=O)[C@H](Cc1c[nH]c2ccccc12)NC(=O)[C@H](CCSC)NC(=O)[C@H](CC(C)C)NC(=O)[C@H](CCCCN)NC(=O)[C@@H](N)CCCNC(=N)N)C(=O)N[C@H](CC(C)C)C(N)=O [Composition 7] (HELM PEPTIDE1{R.K.L.M.W.I.[dL].[am]}$$$$V2.0)	38 ± 5	–	–
CC[C@H](C)[C@H](NC(=O)[C@H](Cc1ccc(O)cc1)NC(=O)[C@H](CCSC)NC(=O)[C@H](CC(C)C)NC(=O)[C@H](CCCCN)NC(=O)[C@@H](N)CCCNC(=N)N)C(=O)N[C@H](CC(C)C)C(N)=O [Composition 5] (HELM PEPTIDE1{R.K.L.M.Y.I.[dL].[am]}$$$$V2.0)	70 ± 9	–	–
CC[C@H](C)[C@H](NC(=O)[C@H](CC(C)C)NC(=O)[C@H](CCSC)NC(=O)[C@H](CC(C)C)NC(=O)[C@H](CCCCN)NC(=O)[C@@H](N)CCCNC(=N)N)C(=O)N[C@H](CC(C)C)C(N)=O [Composition 6] (HELM PEPTIDE1{R.K.L.M.L.I.[dL].[am]}$$$$V2.0)	67 ± 10	–	–
CC[C@H](C)[C@H](NC(=O)[C@H](Cc1ccc(OC)cc1)NC(=O)[C@H](CCSC)NC(=O)[C@H](CC(C)C)NC(=O)[C@H](CCCCN)NC(=O)[C@H](CCCNC(=N)N)NC(C)=O)C(=O)N[C@@H](C(N)=O)C(C)C [Composition 25] (Ac-RKLMY(Me)I[dV]-NH2)	–	1.0 (0.52-1.9) mg/kg	anti-inflammatory activity, result in words: retains activity
1ATyRKLL(β-thienyl-D--Ala)Il-NH2	–	–	ED50 (95% confidence limits) (i.v., 11-mers, injected one hour before 58° C. water for 1 minute, paw weight 30 minutes later, Table 1): 0.015 (0.006-0.036) mg/kg
CC[C@H](C)[C@H](NC(=O)[C@H](Cc1ccc(OC)cc1)NC(=O)[C@H](CCSC)NC(=O)[C@H](CC(C)C)NC(=O)[C@H](CCCCN)NC(=O)[C@@H](CCCCN)NC(C)=O)C(=O)N[C@H](CC(C)C)C(N)=O [Composition 16] (Ac-[dK]KLMY(Me)I[dL]-NH2)	–	–	Heat-Edema % Saline Values (dose 2 mg/kg i.v.): 67 ± 11 % Saline Values; anti-inflammatory activity, result in words: retention of activity
CC[C@H](C)[C@H](NC(=O)[C@H](Cc1ccc(Cl)cc1)NC(=O)[C@H](CC(C)C)NC(=O)[C@H](CC(C)C)NC(=O)[C@H](CCCCN)NC(=O)[C@@H](N)CCCNC(=N)N)C(=O)N[C@H](CC(C)C)C(N)=O [Composition 13] (HELM PEPTIDE1{R.K.L.L.[O=C([C@H](Cc1ccc(Cl)cc1)N[*:1])[*:2]].I.[dL].[am]}$$$$V2.0)	–	–	Heat-Edema % Saline Values (dose 5 mg/kg i.v., N.S. = not different from saline, 5 mg/kg): 15 ± 5 % Saline Values and 15 % Saline Values
CC[C@H](C)[C@H](NC(=O)[C@H](Cc1ccc(OC)cc1)NC(=O)[C@H](CCSC)NC(=O)[C@H](CC(C)C)NC(=O)[C@H](CCCCN)NC(=O)[C@H](CCCNC(=N)N)NC(=O)[C@H](Cc1ccc(OC)cc1)NC(C)=O)C(=O)N[C@H](CC(C)C)C(N)=O [Composition 29] (Ac-Y(Me)RKLMY(Me)I[dL]-NH2)	–	0.22 (0.09-0.55) mg/kg	–
CC[C@H](C)[C@H](NC(=O)[C@H](Cc1ccc(I)cc1)NC(=O)[C@H](CC(C)C)NC(=O)[C@H](CC(C)C)NC(=O)[C@H](CCCCN)NC(=O)[C@@H](N)CCCNC(=N)N)C(=O)N[C@H](CC(C)C)C(N)=O [Composition 11] (HELM PEPTIDE1{R.K.L.L.[O=C([C@H](Cc1ccc(I)cc1)N[*:1])[*:2]].I.[dL].[am]}$$$$V2.0)	49 ± 6	–	–
CC[C@H](C)[C@H](NC(=O)[C@@H](CC(C)C)NC(=O)[C@H](CC(C)C)NC(=O)[C@H](CC(C)C)NC(=O)[C@H](CCCCN)NC(=O)[C@@H](N)CCCNC(=N)N)C(=O)N[C@H](CC(C)C)C(N)=O [Composition 23] (HELM PEPTIDE1{R.K.L.L.[dL].I.[dL].[am]}$$$$V2.0)	–	1.3 (0.50-3.6) mg/kg	–
CC[C@H](C)[C@H](NC(=O)[C@@H](Cc1c[nH]c2ccccc12)NC(=O)[C@H](CC(C)C)NC(=O)[C@H](CC(C)C)NC(=O)[C@H](CCCCN)NC(=O)[C@@H](N)CCCNC(=N)N)C(=O)N[C@H](CC(C)C)C(N)=O [Composition 24] (HELM PEPTIDE1{R.K.L.L.[dW].I.[dL].[am]}$$$$V2.0)	–	0.82 (0.56-1.2) mg/kg	–
